We go through three molecules from BindingDB's records for doi:10.1021/bi500959t (University of Western Ontario, 2015).

Test [1] deals with T1, Ribosyldihydronicotinamide dehydrogenase [quinone] (Homo sapiens, UniProt P16083).
T1 sequence (P16083 whole entry): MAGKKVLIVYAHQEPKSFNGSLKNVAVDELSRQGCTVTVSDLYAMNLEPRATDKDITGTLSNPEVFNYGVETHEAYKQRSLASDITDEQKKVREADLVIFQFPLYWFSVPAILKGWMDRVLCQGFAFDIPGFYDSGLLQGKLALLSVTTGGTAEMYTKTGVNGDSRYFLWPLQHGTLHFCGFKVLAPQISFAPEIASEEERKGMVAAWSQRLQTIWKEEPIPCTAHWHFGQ
In words: Fluorescence Titration Assay. The method, then: To assess direct binding of inhibitors to oxidized NQO2 (NQO2ox), fluorescence quenching of FAD was monitored with an excitation wavelength of 350 nm and an emission wavelength of 430 nm. NQO2 (775 or 38.75 nM) was titrated with the indicated concentrations of TBB, TBBz, and DMAT.

Test [2] deals with T1, Ribosyldihydronicotinamide dehydrogenase [quinone]. In words: Inhibition of Steady-State Catalysis Assay. The procedure: To determine the IC50 value of each inhibitor, reactions were initiated by addition of 154 pM NQO2 to a reaction buffer containing 150 μM SCDP and 5 μM menadione with TBB (0.625−640 μM), TBBz (2.5−640 nM), or DMAT (2.5−640 nM).

Molecule `Brc1c(Br)c(Br)c2[nH]nnc2c1Br` displayed a Kd in test [1] of 7110 nM. In addition, in test [2], the IC50 amounted to 12800 nM.
In the same order, the values of `CN(C)c1nc2c(Br)c(Br)c(Br)c(Br)c2[nH]1` [2-(dimethylamino)-4,5,6,7-tetrabromo-1H-benzimidazole] are 36.4 nM and 484 nM.
Take `Brc1c(Br)c(Br)c2[nH]cnc2c1Br` [4,5,6,7-tetrabromo-1H-benzimidazole]: the Kd in test [1] is 18.1 nM. The molecule further came in with an IC50 in test [2] of 79.4 nM.
